Measurements reported in US5798362A, “Quinazolinyl-amino derivatives having α-antagonist activity” (Recordati S.A. Chemical and Pharmaceutical Company, priority 1994, dated 1998).
Where a name gives a salt, the structure may show the parent alone. Read-outs that look alike come from different tables or passages of the source.

Columns and labels:
[1] = target: α1-receptors ([3H]prazosin); experiment: [3H]Prazosin binding (α1-receptors), rat cerebral cortices; details: rat cerebral cortex, 0.35 nM [3H]prazosin, 25° C., 30 min; read-out: [3H] prazosine IC50
Protocol: Rat cerebral cortices were homogenized in 50 volumes of original wet weight of ice-cold 50 mM Tris-HCl buffer pH 7.4. The homogenates were centrifuged at 48,000 × g for 10 minutes, and the pellets were resuspended in the same volume of ice-cold buffer, centrifuged and resuspended two more times. […] The incubations were terminated by rapid filtration through Whatman GF/B, filters using a Brandel cell harvester and the filters were washed with 3×3 ml of ice-cold buffer. The radioactivity retained on the filters was determined by liquid scintillation counting. Data analysis The inhibition of specific binding of the radioligands by the tested drugs was analyzed to estimate the IC50 value by using the non-linear curve-fitting program Allfit [A. De Lean et al., Am. J. Physiol.

[2] = target: T1, cloned α1A adrenoceptor (Bos taurus, UniProt P18130); experiment: Radioligand binding, cloned α1A adrenoceptor (previously α1C) expressed in COS-7 cells; details: bovine brain α1A in COS-7 cells; mean of 2-4 experiments in triplicate, agreed within 10%
T1 construct: expressed in transfected cells; host or cells: COS-7 (transient)
T1 sequence (P18130 1-466): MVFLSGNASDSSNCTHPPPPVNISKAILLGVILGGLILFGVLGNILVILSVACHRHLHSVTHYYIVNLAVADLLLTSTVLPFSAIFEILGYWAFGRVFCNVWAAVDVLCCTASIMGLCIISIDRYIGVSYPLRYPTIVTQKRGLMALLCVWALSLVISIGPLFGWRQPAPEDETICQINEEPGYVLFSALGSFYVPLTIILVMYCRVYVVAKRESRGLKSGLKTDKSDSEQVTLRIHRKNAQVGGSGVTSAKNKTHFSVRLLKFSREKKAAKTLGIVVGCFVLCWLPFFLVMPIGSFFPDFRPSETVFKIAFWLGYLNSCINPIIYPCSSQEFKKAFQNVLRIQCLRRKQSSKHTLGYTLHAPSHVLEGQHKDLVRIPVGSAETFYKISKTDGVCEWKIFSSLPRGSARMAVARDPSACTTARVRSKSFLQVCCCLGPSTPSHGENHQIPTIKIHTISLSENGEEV
Protocol: (§1) Cloned animal α1 adrenoceptors
(§2) COS-7 cells were grown as monolayers in Dulbecco's modified Eagle's medium (DMEM), supplemented with 25 mM glucose, 10% bovine calf serum, 100 units/ml penicillin and 100 μg/ml streptomicyn sulfate.
(§3) Transfected cells from colture flask were washed two times with 5 ml phosphate buffered saline (PBS), scraped into 2 ml of 5 mM Tris-HCl, pH 7.4, containing 5 mM EDTA and 10 μM leupeptin, and lysed by sonication. The cell lysates were pelleted at 30000xg for 15 min at 4° C. and washed three times with 10 ml ice-cold 50 mM Tris-HCl, pH 7.4. Membranes were resuspended in 50 mM Tris-HCl, pH 7.4, containing 10 μM pargyline and 0.1% ascorbic acid, quickly frozen and stored at -70° C. until utilized.
(§4) Radioligand binding assays
Non-specific binding was determined in presence of 100 μM phentolamine. The reaction mixture was incubated for 30 min at 25° C. and then stopped by the addition of ice cold Tris-HCl buffer and rapid filtration through 0.2% polyethyleneimine pretreated Whatman GF/B fiber filters using Brandel cell harvester. The filters were then washed with 3×3 ml of ice-cold buffer and the radioactivity retained on the filters was counted in 10 ml of Filter Count (Packard) in a liquid scintillation spectrometer with a counting efficacy of 40%.
The inhibition of specific binding of the radioligands by the tested drugs was analyzed to estimate the IC50 value by using the non-linear curve-fitting program Allfit [A. De Lean et al., Am. J. Physiol.

[3] = in vivo; details: mouse
Protocol: 20-30 g b.w., were obtained from Charles River, Italy. Animals were housed with free access to food and water and maintained on forced light-dark cycle at 22°-24° C. until the day of experiments.
The acute toxicity of synthesized compounds was evaluated in female Albino Swiss mice after intraperitoneal and oral administration. Four logarithmic scaled doses of the compounds were dissolved or suspended in 0.5% Methocel and administered in a volume of 10 ml/kg to groups of 4 mice/dose. Mortality was recorded 7 days after the administration.

[4] = target: T2, cloned α1B adrenoceptor (Mesocricetus auratus, UniProt P18841); experiment: biochemical; type: binding; details: syrian hamster α1B in COS-7 cells; mean of 2-4 experiments in triplicate, agreed within 10%
T2 sequence (P18841 1-515): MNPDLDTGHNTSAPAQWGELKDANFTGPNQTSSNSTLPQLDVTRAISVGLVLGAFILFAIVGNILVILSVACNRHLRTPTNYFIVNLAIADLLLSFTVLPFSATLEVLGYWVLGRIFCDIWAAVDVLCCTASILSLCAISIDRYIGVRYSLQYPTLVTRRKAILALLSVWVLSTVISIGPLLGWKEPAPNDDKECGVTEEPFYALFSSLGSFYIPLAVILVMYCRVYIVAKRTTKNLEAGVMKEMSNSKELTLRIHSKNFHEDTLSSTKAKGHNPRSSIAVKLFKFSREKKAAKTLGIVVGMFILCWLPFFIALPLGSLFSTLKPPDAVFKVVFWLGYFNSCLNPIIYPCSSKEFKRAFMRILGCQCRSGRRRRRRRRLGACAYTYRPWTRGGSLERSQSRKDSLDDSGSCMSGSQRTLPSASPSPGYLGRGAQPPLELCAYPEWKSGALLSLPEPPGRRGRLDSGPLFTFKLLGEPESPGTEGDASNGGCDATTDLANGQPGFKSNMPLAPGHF
Protocol: as §1, §2, §3, §4
(§5) Non-specific binding was determined in presence of 100 μM phentolamine. […] The filters were then washed with 3×3 ml of ice-cold buffer and the radioactivity retained on the filters was counted in 10 ml of Filter Count (Packard) in a liquid scintillation spectrometer with a counting efficacy of 40%.
(§6) The inhibition of specific binding of the radioligands by the tested drugs was analyzed to estimate the IC50 value by using the non-linear curve-fitting program Allfit [A. De Lean et al., Am. […]

[5] = target: T3, cloned α1D adrenoceptor (Rattus norvegicus, UniProt P23944); experiment: Radioligand binding, cloned α1D adrenoceptor (previously α1A/D) expressed in COS-7 cells; details: rat brain α1D in COS-7 cells; mean of 2-4 experiments in triplicate, agreed within 10%
T3 construct: expressed in transfected cells; host or cells: COS-7 (transient)
T3 sequence (P23944 1-561): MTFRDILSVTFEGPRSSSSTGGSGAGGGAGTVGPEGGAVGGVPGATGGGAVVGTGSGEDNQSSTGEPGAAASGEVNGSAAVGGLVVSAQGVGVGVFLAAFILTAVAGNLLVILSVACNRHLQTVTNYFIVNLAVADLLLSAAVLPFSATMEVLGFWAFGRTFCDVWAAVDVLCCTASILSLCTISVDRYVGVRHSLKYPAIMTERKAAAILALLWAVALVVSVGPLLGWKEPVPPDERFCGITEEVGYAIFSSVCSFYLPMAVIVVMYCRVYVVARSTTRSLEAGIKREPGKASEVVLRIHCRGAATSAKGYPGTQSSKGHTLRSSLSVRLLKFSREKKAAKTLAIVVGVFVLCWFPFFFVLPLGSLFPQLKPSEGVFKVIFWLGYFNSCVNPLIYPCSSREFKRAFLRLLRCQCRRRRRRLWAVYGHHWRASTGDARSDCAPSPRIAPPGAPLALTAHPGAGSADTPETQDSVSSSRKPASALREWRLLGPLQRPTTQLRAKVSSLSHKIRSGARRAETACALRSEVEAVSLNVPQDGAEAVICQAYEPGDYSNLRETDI
Protocol: as §1, §2, §3, §4, §5, §6

[6] = system: dyastolic arterious pressure; experiment: Hypotensive activity in the normotensed anesthetized rat; type: in vivo; details: iv, endovenous administration, read-out: DE25 (dose which induces a lowering of 25% of the dyastolic arterious pressure)
Protocol: (§7) Male Sprague Dawley rats (Crl: CD' BR) of 175-300 g b.w., male spontaneously hypertensive rats, Okamoto strain, female Albino Swiss mice [Crl:CD-1 (ICR) BR] 20-30 g b.w., were obtained from Charles River, Italy. Animals were housed with free access to food and water and maintained on forced light-dark cycle at 22°-24° C. until the day of experiments.
(§8) Evaluation of the antihypertensive activity in chateterized spontaneously hypertensive rat (SH) chronic awake and of the hypotensive activity in the normotensed anesthethized rat
Normotensed rats with were prepared surgically at the moment of the test, after anesthesia with pentobarbital. Suitable chateters were introduced in the left carotid artery and the right jugular vein. The arterious chateter end was connected to a pressure transductor which sends the signal to a polygraph preamplifier. About 30' before the administration the arterious pressure was monitored and the registration of the parameters was performed after the administration, at various time according to the test protocol.
For the endovenous administration the administered volum was 0.5-1 ml/Kg, while for the oral administration was 5 ml/Kg.
Evaluation of data: in so far as the espression of the results is concerned, the pressure data were reported as percentage of the variation in respect to the base values.

[7] = system: dyastolic arterious pressure; experiment: Antihypertensive activity in catheterized awake spontaneously hypertensive rat (SHR); type: in vivo; details: oral administration, read-out: DE25 (dose which induces a lowering of 25% of the dyastolic arterious pressure)
Protocol: as §7, §8
The SH rats are surgically prepared at least 24 hours before the test. The surgical operation was performed under neuroleptoanalgesia or barbituric anesthesia; the right carotid artery was exposed and a chateter suitable in dimensions and material was introducted in the vessel up to the aortic arch. […]
For endovenous administrations a second chateter similar to the one above described was introduced during the surgical operation into the left jugular vein and brought to the exterior as the arterious chateter. […] About 30' before administration the arterious pressure was monitored and the registration of the parameters was performed after administration at different times according to the test protocol. […]

[8] = ip, mice, intraperitoneal, mortality 7 days after administration, read-out: DL50 i.p.
[9] = mice, oral, mortality 7 days after administration, read-out: DL50 p.o.

Row | Structure (SMILES) | IC50 [1] | LD50 at 168 h [3, 8] | LD50 at 168 h [3, 9] | further results
1 | COc1cc2nc(N3CCN(C(=O)COc4c(OC)cccc4C(C)C)CC3)nc(N)c2cc1OC.Cl [Example 24, 4-Amino-6,7-dimethoxy-2-{4-[(2-methoxy-6-isopropylphenoxy)acetyl]-1-piperazinyl}-quinazoline hydrochloride] | 28 nM |  |  | IC50 [2]: 17.2 nM; LD50 at 168 h ([3]; ip): 268 mg/kg; LD50 at 168 h ([3]; po): > 3000 mg/kg
2 | COc1cc2nc(N3CCN(C(=O)C(C)(C)Oc4ccccc4OC)CC3)nc(N)c2cc1OC.Cl [Example 22, 4-Amino-6,7-dimethoxy-2-{4-[2-(2-methoxyphenoxy)-2-methylpropionyl]-1-piperazinyl}-quinazoline hydrochloride] | 49 nM | 435 mg/kg | > 3000 mg/kg | 
3 | COc1cc2nc(N3CCN(Cc4ccccc4)CC3)nc(N)c2cc1OC [Example 1, 4-Amino-6,7-dimethoxy-2-(4-benzyl-1-piperazinyl)-guinazoline bihydrochloride hemihydrate] | 32 nM | 76 mg/kg | 301 mg/kg | 
4 | COc1ccc(CC2c3cc(OC)c(OC)cc3CCN2c2nc(N)c3cc(OC)c(OC)cc3n2)cc1OC (centres unmarked) [Example 33, 4-Amino-6,7-dimethoxy-2-[1-(3,4-dimethoxybenzyl)-6,7-dimethoxy-1,2,3,4-tetrahydroisoguinolin-2-yl]-quinazoline hydrochloride hydrate] | 287 nM | 884 mg/kg | > 3000 mg/kg | IC50 [2]: 950 nM; IC50 [4]: 206 nM; IC50 [5]: 1550 nM
5 | COc1cc2nc(N3CCN(C(=O)C(C)(C)Oc4ccccc4)CC3)nc(N)c2cc1OC [Example 21, 4-Amino-6,7-dimethoxy-2-[4-(2-phenoxy-2-methylpropionyl)-1-piperazinyl]-quinazoline hydrochloride . 1.5 H2 O] | 99 nM | 206 mg/kg | > 1700 mg/kg | 
6 | COc1cc2nc(N3CCN(C(=O)C4CCCO4)CC3)nc(N)c2cc1OC (centres unmarked) [Terazosin, reference compound] |  |  |  | IC50 [2]: 66.6 nM; IC50 [5]: 106 nM
7 | COc1cc2nc(N3CCN(C(=O)CCC(O)c4ccccc4)CC3)nc(N)c2cc1OC (centres unmarked) [Example 16, 4-Amino-6,7-dimethoxy-2-[4-(4-phenyl-4-hydroxybutirryl)-1-piperazinyl]-quinazoline maleate (1:1)] | 17 nM | 253 mg/kg | > 3000 mg/kg | 
8 | COc1cc2nc(N3CCN(C(=O)CC(=O)c4ccccc4)CC3)nc(N)c2cc1OC [Example 13, 4-Amino-6,7-dimethoxy-2-[4-(2-benzoylacetyl)-1-piperazinyl]-quinazoline] | 7 nM | 142 mg/kg | > 3000 mg/kg | ED25 [6]: 0.056 mg/kg; ED25 [7]: 2.42 mg/kg
9 | COc1cc2nc(N3CCN(C(=O)CCC(=O)c4ccccc4)CC3)nc(N)c2cc1OC.Cl.O [Example 15, 4-Amino-6,7-dimethoxy-2-{4-[(3-benzoyl)propionyl]-1-piperazinyl}-quinazoline hydrochloride hydrate] | 15 nM | > 1000 mg/kg | > 3000 mg/kg | 
10 | COc1cc2nc(N3CCN(C(=O)CCCNC(=O)OCc4ccccc4)CC3)nc(N)c2cc1OC [Example 6, 4-Amino-6,7-dimethoxy-2-{4-[(4-benzyloxycarbonylamino)butirryl]-1-piperazinyl}-quinazoline hydrochloride . 1.5 H2 O] | 29 nM | > 1000 mg/kg | > 3000 mg/kg | 
11 | CCOC(=O)CC(=O)N1CCN(c2nc(N)c3cc(OC)c(OC)cc3n2)CC1.Cl [Example 18, 4-Amino-6,7-dimethoxy-2-[4-(2-ethoxycarbonylacetyl)-1-piperazinyl]-quinazoline hydrochloride] | 54 nM | > 1000 mg/kg | > 3000 mg/kg | 
